Reference: patent US20180318381A1, “Methods of Treatment of Rhabdomyolysis” (University of Pittsburgh - Of the Commonwealth System of …, priority 2015, published 2018)

Experiments:
[1] = system: mice treated with azide; conditions: supplementation at the same time as azide; cited from earlier work
[2] = system: amyotrophic lateral sclerosis mouse model; conditions: ALS mouse model; cited from earlier work
[3] = system: patients with LC-FAODs
[4] = system: Friedrich's ataxia cells; conditions: in response to oxidative stress; cited from earlier work

For `CC(=O)OC[C@H]1O[C@@H](n2ccc(=O)[nH]c2=O)[C@H](OC(C)=O)[C@@H]1OC(C)=O` [PN401, uridine triacetate], the “survival of the animals” value [1] is given as “improved survival”.

For `CCNC(=O)[C@]12CCC(C)(C)C[C@H]1[C@H]1C(=O)C=C3[C@@]4(C)C=C(C#N)C(=O)C(C)(C)[C@@H]4CC[C@@]3(C)[C@]1(C)CC2` [CDDO-EA, 2-cyano-3,12-dioxooleana-1,9-dien-28-oic acid-ethyl amide], the survival [2] is given as “improve survival”.

With `CCCCCCC(=O)OCC(COC(=O)CCCCCC)OC(=O)CCCCCC` [triheptanoin, 1,3-di(heptanoyloxy)propan-2-yl heptanoate] the “decrease in peak CK levels (trend)” value ([3]; 7 subjects with peak CK before and after treatment, P=0.1279) was 68%, the “decline in hypoglycemia event rate per year” value ([3]; 9 subjects with hypoglycemia problems, P=0.0091) was 96% and the hospitalizations ([3]; LC-FAOD patients, FIG. 14) was “reduced hospitalizations”. For the same molecule, the hypoglycemic hospitalizations ([3]; LC-FAOD patients, FIG. 14) was “nearly eliminated”, the “number of days of hospital stay if hospitalized” value ([3]; LC-FAOD patients, FIG. 14) was “reduced” and the “number of hospitalization days with rhabdomyolysis” value ([3]; LC-FAOD patients, FIG. 14) was “decreased”. The “number of hospitalizations with rhabdomyolysis” value ([3]; LC-FAOD patients, FIG. 14) was “did not reduce”, the “peak CK levels” value ([3]; after treatment (from 85,855 before), 7 subjects) was 27,597 units and the “hypoglycemia event rate per year” value ([3]; after treatment (vs 0.92 before), n=9) was 0.04 per year. It also gave a hypoglycemia-related hospitalization days/year ([3]; after treatment (vs 8.42 before), n=9, P=0.0257) of 0.18 days/year, a hospitalization event rate ([3]; after triheptanoin initiation (vs 1.94 before), n=16) of 1.26 and a rhabdomyolysis hospitalization days/year ([3]; after triheptanoin initiation (vs 5.94 before), n=9, P=0.1224) of 2.36 days/year. For the same molecule, the mean hospitalization days/year ([3]; after triheptanoin initiation (vs 17.55 before), n=15) was 5.76 days/year, the hypoglycemia in patients ([3]; patients having long chain FAODs) was “essentially eliminates hypoglycemia” and the episodes of rhabdomyolysis ([3]; patients having long chain FAODs on triheptanoin) was “continue to have episodes of rhabdomyolysis”. For the same molecule, the “decrease in mean hospitalization days/year” value ([3]; period after triheptanoin initiation vs before, n=15, P=0.0242) was 67%.

In the case of `CC1(C)CC[C@]2(NC(=O)C(C)(F)F)CC[C@]3(C)[C@H](C(=O)C=C4[C@@]5(C)C=C(C#N)C(=O)C(C)(C)[C@@H]5CC[C@]43C)[C@@H]2C1` [RTA408, N-(2-cyano-3,12-dioxo-28-noroleana-1,9(11)-dien-17-yl)-2,2-difluoro-propanamide], the antioxidant gene expression [4] is given as “improve antioxidant gene expression”.
